From ChEMBL document CHEMBL1151675, “Novel marine di-Z-carotenoids: cucumariaxanthins A, B, and C from the sea cucumber Cucumaria japonica” (J Nat Prod, 1996)

How the values were obtained:
Assay type in all cases: cell-based
Conditions in all cases: read-out: Activity
[1] = Cytotoxicity against human Raji cells assessed as cell viability at 1000 molar ratio
[2] = Cytotoxicity against human Raji cells assessed as cell viability at 500 molar ratio
[3] = Cytotoxicity against human Raji cells assessed as cell viability at 100 molar ratio
[4] = Cytotoxicity against human Raji cells assessed as cell viability at 10 molar ratio

| SMILES | viability at 1000 molar ratio [1] [%] | viability at 500 molar ratio [2] [%] | viability at 100 molar ratio [3] [%] | viability at 10 molar ratio [4] [%] |
| --- | --- | --- | --- | --- |
| CC(=C/C=C/C(C)=C/C=C/C=C(C)/C=C/C=C(C)\C=C\[C@H]1[C@H](C)C(=O)CCC1(C)C)/C=C/[C@H]1[C@H](C)[C@@H](O)CCC1(C)C | 70 | > 80 | > 80 | > 80 |
| CC(=C/C=C/C(C)=C/C=C/C=C(C)/C=C/C=C(C)\C=C\[C@H]1[C@H](C)[C@@H](O)CCC1(C)C)/C=C/[C@H]1[C@H](C)[C@@H](O)CCC1(C)C | 70 | 70 | > 80 | > 80 |
| CC1=C(/C=C/C(C)=C/C=C/C(C)=C/C=C/C=C(C)/C=C/C=C(C)/C=C/C2=C(C)CCCC2(C)C)C(C)(C)CCC1 [BETA CAROTENE] | 70 | > 80 | > 80 | > 80 |
| CC(=C/C=C/C(C)=C/C=C/C=C(C)/C=C/C=C(C)\C=C\[C@H]1[C@H](C)C(=O)CCC1(C)C)/C=C/[C@H]1[C@H](C)C(=O)CCC1(C)C [CUCUMARIAXANTHIN A] | 70 | > 80 | > 80 | > 80 |
